Paper PMC6143438, “Chlorogenic and phenolic acids are only very weak inhibitors of human salivary α-amylase and rat intestinal maltase activities” (Food Research International (Ottawa, Ont.), 2018)

Tests used:
[1] = target: T1, human salivary α-amylase (Homo sapiens, UniProt P0DUB6); test: enzyme inhibition with amylose substrate, DNS readout after SPE; very weak; type: biochemical
T1 construct: gene AMY1A; human salivary α-amylase type IX-A (Sigma-Aldrich)
T1 sequence (P0DUB6 16-511): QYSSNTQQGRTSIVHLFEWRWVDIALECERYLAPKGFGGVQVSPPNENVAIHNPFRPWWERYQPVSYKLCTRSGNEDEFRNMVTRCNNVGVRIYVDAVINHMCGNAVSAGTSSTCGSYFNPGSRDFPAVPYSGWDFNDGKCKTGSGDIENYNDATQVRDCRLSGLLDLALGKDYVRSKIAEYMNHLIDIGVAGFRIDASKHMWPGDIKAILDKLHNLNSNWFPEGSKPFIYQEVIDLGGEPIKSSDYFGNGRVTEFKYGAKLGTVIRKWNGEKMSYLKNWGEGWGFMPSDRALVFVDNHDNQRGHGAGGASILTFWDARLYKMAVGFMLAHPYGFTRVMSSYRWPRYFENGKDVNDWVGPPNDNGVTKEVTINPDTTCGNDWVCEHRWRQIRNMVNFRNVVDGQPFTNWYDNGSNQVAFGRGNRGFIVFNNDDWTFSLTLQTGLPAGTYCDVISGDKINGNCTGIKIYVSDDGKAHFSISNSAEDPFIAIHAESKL

[2] = target: T1, human salivary α-amylase; test: enzyme inhibition with amylose substrate, DNS readout after SPE; plateau at […] inhibition at […]; type: biochemical

Compound	inhibition at 5000 µM [1] [%]	inhibition at 600 µM [2] [%]
O=C(/C=C/c1ccc(O)c(O)c1)O[C@@H]1C[C@](O)(C(=O)O)C[C@@H](O)[C@H]1O [5-CQA, 5-caffeoylquinic acid]	20.5	
COc1ccc(C=CC(=O)O)cc1OC [3,4-dimethoxycinnamic acid]		32
